In brackets after ≈: the same amount, converted by molar mass.
How the values were obtained:
Format in all cases: cell-based, Mycobacterium tuberculosis
[1] = test system: M. tuberculosis 27294; assay: In vitro agar dilution assay (MIC), reference strain; conditions: for MIC (μg/ml) against M. tuberculosis-27294: Table I; for MIC: Mycobacterium tuberculosis, 27294, Table I, read-out: MIC (μg/ml) against M. tuberculosis-27294
[2] = test system: M. tuberculosis H37Rv ATCC 27294; assay: In vitro growth inhibition assay, BACTEC 460 TB system; parameters: key: +: If ΔGI of test vial is less than that of the control vial the culture was sensitive to the test compound; conditions: final concentration 6.25 μg/ml
[3] = test system: M. tuberculosis clinical isolates, sensitive; assay: microbe, parasite or virus in culture; conditions: for MIC: Mycobacterium tuberculosis, read-out: MIC (μg/ml) against Clinical isolates Sensitive; for MIC (μg/ml) against Clinical isolates Sensitive: Table I, agar dilution

Compound | MIC (μg/ml) against M. tuberculosis-27294 [1] | Growth inhibition of M. tuberculosis 27294 [2] | MIC [1] | MIC [3] | MIC (μg/ml) against Clinical isolates Sensitive [3]
Cc1c(CN2CCCC2)cc(-c2ccccc2)n1NC(=O)c1ccncc1 [compound 19, N-[2-methyl-5-phenyl-3-(pyrrolidinylmethyl)pyrrolyl]-4-pyridylcarboxamide] | 16.0 µg/mL (≈ 44.4 µM) |  |  |  | 
Cc1c(CN2CCN(c3ccccn3)CC2)cc(-c2ccc(Cl)cc2)n1-c1ccc(F)cc1F [compound 47, 1-{[1-(2,4-difluorophenyl)-5-(4-chlorophenyl)-2-methylpyrrol-3-yl]methyl}-4-(2-pyridyl)piperazine] |  | + | 0.25 µg/mL (≈ 0.522 µM) | 0.25 to 1 µg/mL (≈ 0.522 to 2.09 µM) | 
COc1ccccc1N1CCN(Cc2cc(-c3ccccc3)n(NC(=O)c3ccncc3)c2C)CC1 [compound 13, N-(3-{[4-(2-methoxyphenyl)piperazinyl]methyl}-2-methyl-5-phenylpyrrolyl)-4-pyridylcarboxamide] | 0.5 µg/mL (≈ 1.04 µM) | + |  |  | 0.5 to 2.0 µg/mL
COc1ccccc1N1CCN(Cc2cc(-c3ccccc3)n(NC(=O)c3cnccn3)c2C)CC1 [compound 26, N-(3-{[4-(2-methoxyphenyl)piperazinyl]methyl}-2-methyl-5-phenylpyrrolyl) pyrazin-2-ylcarboxamide] | 1.0 µg/mL (≈ 2.07 µM) | + |  |  | 2.0 µg/mL (≈ 4.14 µM)
Cc1c(CN2CCN(c3ccccn3)CC2)cc(-c2ccccc2)n1NC(=O)c1cnccn1 [compound 28, N-(3-{[4-(2-pyridyl)piperazinyl]methyl}-2-methyl-5-phenylpyrrolyl)pyrazin-2-ylcarboxamide] | 2.0 µg/mL (≈ 4.41 µM) |  |  |  | 1.0 to 4.0 µg/mL
Cc1cc(CN2CCN(c3ccccn3)CC2)c(-c2ccccc2)n1NC(=O)c1cnccn1 [compound 34, N-(3-{[4-(2-pyridyl)piperazinyl]methyl}-5-methyl-2-phenylpyrrolyl)pyrazin-2-ylcarboxamide] | 16.0 µg/mL (≈ 35.3 µM) | + |  |  | 16.0-16.0 μg/ml
COc1ccccc1N1CCN(Cc2cc(-c3ccc(Cl)cc3)n(-c3ccc(F)cc3F)c2C)CC1 [compound 45, 1-{[1-(2,4-difluorophenyl)-5-(4-chlorophenyl)-2-methylpyrrol-3-yl]methyl}-4-(2-methoxyphenyl)piperazine] |  | + | 0.5 µg/mL (≈ 0.984 µM) | 0.5 to 2 µg/mL (≈ 0.984 to 3.94 µM) | 
Cc1cc(CN2CCN(c3cccc(C(F)(F)F)c3)CC2)c(-c2ccc(Cl)cc2)n1-c1cccc2ccccc12 [compound 64, 1-{[2-(4-chlorophenyl)-5-methyl-1-naphthylpyrrol-3-yl]methyl}-4-(3-trifluoromethylphenyl)piperazine] | >16.0 µg/mL |  |  |  | >16.0 µg/mL
COc1ccccc1N1CCN(Cc2cc(-c3ccc(Cl)cc3)n(NC(=O)c3cnccn3)c2C)CC1 [compound 38, N-(5-(4-chlorophenyl)-3-{[4-(2-methoxyphenyl)piperazinyl]methyl}-2-methylpyrrolyl)pyrazin-2-ylcarboxamide] | >16.0 µg/mL |  |  |  | >16.0 µg/mL
Cc1cc(CN2CCN(c3cccc(C(F)(F)F)c3)CC2)c(-c2ccc(Cl)cc2)n1NC(=O)c1cnccn1 [compound 43, N-(2-(4-chlorophenyl)-3-{[4-(3-trifluoromethylphenyl)piperazinyl]methyl}-5-methylpyrrolyl)pyrazin-2-ylcarboxamide] | >16.0 µg/mL |  |  |  | >16.0 µg/mL
CO[C@H]1/C=C/O[C@@]2(C)Oc3c(C)c(O)c4c(O)c(c(/C=N/N5CCN(C)CC5)c(O)c4c3C2=O)NC(=O)/C(C)=C\C=C\[C@H](C)[C@H](O)[C@@H](C)[C@@H](O)[C@@H](C)[C@H](OC(C)=O)[C@@H]1C [Rifampicin, reference compound] |  | + | 0.25 µg/mL (≈ 0.304 µM) | 0.25 µg/mL (≈ 0.304 µM) | 
COc1ccccc1N1CCN(Cc2cc(C)n(NC(=O)c3cnccn3)c2-c2ccc(Cl)cc2)CC1 [compound 42, N-(2-(4-chlorophenyl)-3-{[4-(2-methoxyphenyl)piperazinyl]methyl}-5-methylpyrrolyl)pyrazin-2-ylcarboxamide] | 8.0 µg/mL (≈ 15.5 µM) | + |  |  | 8.0 µg/mL (≈ 15.5 µM)
Cc1c(CN2CCN(C(=O)c3ccco3)CC2)cc(-c2ccc(Cl)cc2)n1-c1ccc(Cl)cc1 [compound 7, 4-{[1,5-bis(4-chlorophenyl)-2-methylpyrrol-3-yl]methyl}piperazinyl-2-furyl-ketone] | 4.0 µg/mL (≈ 8.09 µM) | + |  |  | 1.0 to 4.0 µg/mL
Cc1cc(CN2CCN(c3cccc(C(F)(F)F)c3)CC2)c(-c2ccccc2)n1NC(=O)c1ccncc1 [Compound No. 23, N-(3-{[4-(3-trifluoromethylphenyl)piperazinyl]methyl}-5-methyl-2-phenylpyrrolyl)-4-pyridylcarboxamide] | 0.25 µg/mL (≈ 0.481 µM) | + |  |  | 0.25 to 1.0 µg/mL
COc1ccccc1N1CCN(Cc2cc(-c3ccc(Cl)cc3)n(-c3cccc4ccccc34)c2C)CC1 [compound 59, 1-{[5-(4-chlorophenyl)-2-methyl-1-naphthylpyrrol-3-yl]methyl}-4-(2-methoxyphenyl)piperazine] | >16.0 µg/mL |  |  |  | >16.0 µg/mL
Cc1c(CN2CCN(c3ccc(F)cc3)CC2)cc(-c2ccc(Cl)cc2)n1-c1ccc(Cl)cc1 [Compound No. 1, 1-{[1,5-bis(4-chlorophenyl)-2-methylpyrrol-3-yl]methyl}-4-(4-fluorophenyl) piperazine] |  | + | 0.5 µg/mL (≈ 1.01 µM) | 0.5 to 2 µg/mL (≈ 1.01 to 4.04 µM) | 
Cc1c(CN2CCN(c3ccc(F)cc3)CC2)cc(-c2ccc(Cl)cc2)n1NC(=O)c1cnccn1 [compound 37, N-(5-(4-chlorophenyl)-3-{[4-(4-fluorophenyl)piperazinyl]methyl}-2-methylpyrrolyl)pyrazin-2-ylcarboxamide] | 16.0 µg/mL (≈ 31.7 µM) |  |  |  | 8 to 16.0 µg/mL
Cc1c(CN2CCN(c3ccc(F)cc3)CC2)cc(-c2ccccc2)n1NC(=O)c1cnccn1 [compound 25, N-(3-{[4-(4-fluorophenyl)piperazinyl]methyl}-2-methyl-5-phenylpyrrolyl)pyrazin-2-ylcarboxamide] | 2.0 µg/mL (≈ 4.25 µM) | + |  |  | 2.0 to 4.0 µg/mL
Cc1c(CN2CCN(C)CC2)cc(-c2ccccc2)n1NC(=O)c1ccncc1 [compound 16, N-{2-methyl-3-[(4-methylpiperazinyl)methyl]-5-phenylpyrrolyl}-4-pyridylcarboxamide] | 2.0 µg/mL (≈ 5.13 µM) | + |  |  | 2.0 to 4.0 µg/mL
Cc1c(CN2CCN(Cc3ccc4c(c3)OCO4)CC2)cc(-c2ccccc2)n1NC(=O)c1ccncc1 [compound 17, N-(3-{[4-(2H-benzo[d]1,3-dioxolan-5-ylmethyl)piperazinyl]methyl}-2-methyl-5-phenylpyrrolyl)-4-pyridylcarboxamide] | 2.0 µg/mL (≈ 3.92 µM) | + |  |  | 2.0 to 4.0 µg/mL
Cc1c(CN2CCN(c3cccc(C(F)(F)F)c3)CC2)cc(-c2ccccc2)n1-c1ccc(F)cc1F [compound 53, 1-{[1-(2,4-difluorophenyl)-2-methyl-5-phenylpyrrol-3-yl]methyl}-4-(3-trifluoromethylphenyl)piperazine] |  |  | > 16 µg/mL | > 16 µg/mL | 
COc1ccccc1N1CCN(Cc2cc(C)n(NC(=O)c3cnccn3)c2-c2ccccc2)CC1 [compound 32, N-(3-{[4-(2-methoxyphenyl)piperazinyl]methyl}-5-methyl-2-phenylpyrrolyl) pyrazin-2-ylcarboxamide] | >16.0 µg/mL |  |  |  | >16.0 µg/mL
Cc1cc(CN2CCN(c3ccc(F)cc3)CC2)c(-c2ccccc2)n1-c1ccc(F)cc1F [compound 55, 1-{[1-(2,4-difluorophenyl)-5-methyl-2-phenylpyrrol-3-yl]methyl}-4-(4-fluorophenyl) piperazine] |  |  | > 16 µg/mL | > 16 µg/mL | 
Cc1cc(CN2CCN(c3ccc(F)cc3)CC2)c(-c2ccc(Cl)cc2)n1NC(=O)c1cnccn1 [compound 41, N-(2-(4-chlorophenyl)-3-{[4-(4-fluorophenyl)piperazinyl]methyl}-5-methylpyrrolyl)pyrazin-2-ylcarboxamide] | >16.0 µg/mL |  |  |  | >16.0 µg/mL
CCC(CO)n1c(C)c(CN2CCSCC2)c(CO)c1-c1ccccc1 (stereo not drawn) [compound 90, 2-[3-(hydroxymethyl)-5-methyl-2-phenyl-4-(1,4-thiazaperhydroin-4-ylmethyl)-pyrrolyl]butan-1-ol] | >16.0 µg/mL |  |  |  | >16.0 µg/mL
Cc1c(CN2CCN(c3ccc(F)cc3)CC2)cc(-c2ccccc2)n1-c1ccc(F)cc1F [compound 51, 1-{[1-(2,4-difluorophenyl)-2-methyl-5-phenylpyrrol-3-yl]methyl}-4-(4-fluorophenyl)piperazine] |  |  | > 16 µg/mL | > 16 µg/mL | 
Cc1cc(CN2CCN(Cc3ccc4c(c3)OCO4)CC2)c(-c2ccccc2)n1NC(=O)c1ccncc1 [compound 24, N-(3-{[4-(2H-benzo[d]1,3-dioxolan-5-ylmethyl)piperazinyl]methyl}-5-methyl-2-phenylpyrrolyl)-4-pyridylcarboxamide] | 8.0 µg/mL (≈ 15.7 µM) | + |  |  | 

From US7763602B2, “Pyrrole derivatives as antimycobacterial compounds” (priority 2002, dated 2010)
